Laboratory results taken from patent US20240239801A1, “PYRIMIDO[5,4,D]PYRIMIDINE COMPOUNDS, COMPOSITIONS COMPRISING THEM AND USES THEREOF” (Université de Montréal, priority 2021, published 2024).

What was measured:
HCT116 pERK = assay: Phospho-ERK inhibition, AlphaLISA SureFire Ultra p-ERK 1/2; assay type: cell-based, human; details: Table 3; for IC50: 1 h treatment; for HCT116 (Ymin %): lowest value of the pERK IC50 curve
Procedure: (§1) All cancer cell lines (A375, A101D, A2058, RKO, HT29 SK-MEL 30, IPC298, HepG2, HCT-116, Lovo, SW620, SW480, NCI-H358, NCI-H2122, Calu-6, NCIH2087, NCIH1755, NCIH1666 and Mewo) were obtained from ATCC and cultured in RPMI-1640 medium (Gibco) supplemented with 5% heat inactivated fetal bovine serum (FBS, Wisent) at 37° C. under 5% CO2. Cells were maintained in T175 flasks (Greiner). They were passaged by removing the culture medium, washing once in 10 mL of room temperature Phosphate Buffered Saline (PBS; Wisent) and incubating at 37° C. with 2 mL of 0.05% Trypsin (Thermo-Fisher). Trypsin was then inactivated by adding complete growth medium and the cells were then replated in a T175 culture dish at the appropriate dilution. All cell lines were routinely tested for mycoplasma contamination. Tissue type and mutational status of each cell line can be found in Table B.
(§2) AlphaLISA® SureFire® Ultra™ p-ERK ½ (Thr202/Tyr204) analysis was conducted on cells plated in 100 μL of complete RPMI-1640 growth medium in 96-well flat-bottomed transparent dishes (Costar) at a density indicated in Table C. Cells were maintained overnight at 37° C. under 5% CO2 before treatment with compounds' dilution series for one hour. The cell density in cells/cm^2 corresponds to cell number divided by the area of one well of a 96-well plate ([…]).
(§3) In a dilution series 100 μL/well of test substance dilution prepared in complete RPMI-1640 growth media was added to the cells. The dilution series is selected so that ten concentrations cover a range from 30 μM or 10 μM to 0.33 nM. If necessary, the initial concentration of 10 μM is increased to 100 μM or lowered to 1 μM (as in the case of A375 and NCIH1666 cells, which are generally more sensitive to the compounds) and further dilution is carried out accordingly. The final concentration of DMSO in the assay is set at 0.5%.
(§4) After treatment, media was removed, and cells were lysed in 50 μL of 1× AlphaScreen Ultra Lysis Buffer (Perkin Elmer). The AlphaLISA® SureFire® Ultra™ p-ERK ½ (Thr202/Tyr2O4) (PerkinElmer) reactions were performed with 5 μL of cell lysate according to the manufacturer's specifications in 384-well proxyplates (Perkin Elmer) followed by overnight incubation of the reactions at room temperature in a humidified chamber. After completion of the reactions, the signals were recorded on an EnVision plate reader (Perkin Elmer) using built in AlphaLISA® settings.
(§5) The effect of each compound dilution on the pERK signal was expressed in % inhibition and calculated as follows. An internal 100% inhibition control (1 μM trametinib, cat. No. HY-10999; MedChem Express; CAS No. 871700-17-3) was included in each plate and used as a measure of pERK background. First, the value obtained for trametinib was subtracted from each data point. The average of DMSO (vehicle) controls (set as 0% inhibition) was established and used to calculate % inhibition:
(§6) The ability of each compound to inhibit pERK signal was expressed as an IC50 value obtained by plotting the inhibition values for each data point of a dilution series and fitting the obtained curves using a log(agonist) versus response−variable slope (four parameters) function using GraphPadPrism (V7.0).
(§7) When present, paradoxical pERK induction is inferred from the negative % inhibition values observed in the pERK IC50 curves of a compound.

SW480 pERK = assay: as above; assay type: cell-based, human; details: Table 3; for IC50: 1 h treatment, read-out: SW480 PERK IC50; for SW480 (Ymin %): lowest value of the pERK IC50 curve
Procedure: as §1, §2, §3, §4, §5, §6, §7

In the case of `COc1ccc(S(=O)(=O)Nc2ccc(F)c(Nc3ncnc4cnc(N5CCC5)nc34)c2F)cc1` [Example 43], the IC50 (HCT116 pERK) is reported as 10 to 30 µM, the “HCT116 (Ymin %)” value (HCT116 pERK) is reported as 11% and the IC50 (SW480 pERK) is reported as 10 to 30 µM. For the same molecule, the “SW480 (Ymin %)” value (SW480 pERK) was 0%.
`COc1ccc(S(=O)(=O)Nc2ccc(F)c(Nc3ncnc4cnc(N5CC[C@H](F)C5)nc34)c2F)c(F)c1` [Example 44] was tested, and the IC50 (HCT116 pERK) was 1 to 10 µM, the “HCT116 (Ymin %)” value (HCT116 pERK) was −2% and the IC50 (SW480 pERK) was 1 to 10 µM. For the same molecule, the “SW480 (Ymin %)” value (SW480 pERK) was 12%.
In the case of `COc1ccc(S(=O)(=O)Nc2ccc(F)c(Nc3ncnc4cnc(-n5cnc6ccccc65)nc34)c2F)c(F)c1` [Example 45], the IC50 (HCT116 pERK) is reported as 1 to 10 µM, the “HCT116 (Ymin %)” value (HCT116 pERK) is reported as 11% and the IC50 (SW480 pERK) is reported as 1 to 10 µM. For the same molecule, the “SW480 (Ymin %)” value (SW480 pERK) was −8%.
In the case of `COc1ccc(S(=O)(=O)Nc2ccc(F)c(Nc3ncnc4cnc(OC)nc34)c2F)cc1` [Example 46], the IC50 (HCT116 pERK) is reported as 10 to 30 µM, the “HCT116 (Ymin %)” value (HCT116 pERK) is reported as 8% and the IC50 (SW480 pERK) is reported as 10 to 30 µM. For the same molecule, the “SW480 (Ymin %)” value (SW480 pERK) was 12%.
`COc1ccc(S(=O)(=O)Nc2ccc(F)c(Nc3ncnc4cnc(N5CC(F)C5)nc34)c2F)cc1` [Example 47] was tested, and the IC50 (HCT116 pERK) was 1 to 10 µM, the “HCT116 (Ymin %)” value (HCT116 pERK) was 6% and the IC50 (SW480 pERK) was 1 to 10 µM. For the same molecule, the “SW480 (Ymin %)” value (SW480 pERK) was −1%.
In the case of `COc1ccc(S(=O)(=O)Nc2ccc(F)c(Nc3ncnc4cnc(N5CC(F)(F)C5)nc34)c2F)cc1` [Example 48], the IC50 (HCT116 pERK) is reported as 1 to 10 µM, the “HCT116 (Ymin %)” value (HCT116 pERK) is reported as 13% and the IC50 (SW480 pERK) is reported as 1 to 10 µM. The “SW480 (Ymin %)” value (SW480 pERK) was 6%.
In the case of `COc1ccc(S(=O)(=O)Nc2ccc(F)c(Nc3ncnc4cnc(Oc5cccc(C#N)c5)nc34)c2F)cc1` [Example 49], the IC50 (HCT116 pERK) is reported as 10 to 30 µM, the “HCT116 (Ymin %)” value (HCT116 pERK) is reported as 8% and the IC50 (SW480 pERK) is reported as 10 to 30 µM. The “SW480 (Ymin %)” value (SW480 pERK) was −9%.
For `COc1ccc(S(=O)(=O)Nc2ccc(F)c(Nc3ncnc4cnc(N5CC(F)(F)C5)nc34)c2F)c(F)c1` [Example 50], the IC50 (HCT116 pERK) was 1 to 10 µM, the “HCT116 (Ymin %)” value (HCT116 pERK) was 8% and the IC50 (SW480 pERK) was 1 to 10 µM. The “SW480 (Ymin %)” value (SW480 pERK) was −9%.
`COc1ccc(S(=O)(=O)Nc2ccc(F)c(Nc3ncnc4cnc(N5CC(F)C5)nc34)c2F)c(F)c1` [Example 52] was tested, and the IC50 (HCT116 pERK) was 1 to 10 µM, the “HCT116 (Ymin %)” value (HCT116 pERK) was −4% and the IC50 (SW480 pERK) was 1 to 10 µM. The “SW480 (Ymin %)” value (SW480 pERK) was −8%.
For `COc1ccc(S(=O)(=O)Nc2ccc(F)c(Nc3ncnc4cnc(-n5cnc(C)c5C)nc34)c2F)c(F)c1` [Example 53], the IC50 (HCT116 pERK) was 1 to 10 µM, the “HCT116 (Ymin %)” value (HCT116 pERK) was 15% and the IC50 (SW480 pERK) was 1 to 10 µM. The “SW480 (Ymin %)” value (SW480 pERK) was −4%.
For `COc1ccc(S(=O)(=O)Nc2ccc(F)c(Nc3ncnc4cnc(Oc5cccc(N)c5)nc34)c2F)cc1` [Example 54], the IC50 (HCT116 pERK) was 10 to 30 µM, the “HCT116 (Ymin %)” value (HCT116 pERK) was −7% and the IC50 (SW480 pERK) was 10 to 30 µM. The “SW480 (Ymin %)” value (SW480 pERK) was 8%.
With `COc1ccc(S(=O)(=O)Nc2ccc(F)c(Nc3ncnc4cnc(-n5cnc6ccccc65)nc34)c2F)c(C)c1` [Example 55] the IC50 (HCT116 pERK) was 1 to 10 µM, the “HCT116 (Ymin %)” value (HCT116 pERK) was −4% and the IC50 (SW480 pERK) was 1 to 10 µM. For the same molecule, the “SW480 (Ymin %)” value (SW480 pERK) was −2%.
In the case of `COc1ccc(S(=O)(=O)Nc2ccc(F)c(Nc3ncnc4cnc(-n5cnc(C)c5C)nc34)c2F)c(C)c1` [Example 56], the IC50 (HCT116 pERK) is reported as 1 to 10 µM, the “HCT116 (Ymin %)” value (HCT116 pERK) is reported as −10% and the IC50 (SW480 pERK) is reported as 1 to 10 µM. The “SW480 (Ymin %)” value (SW480 pERK) was 4%.
For `CO[C@@H]1CCN(S(=O)(=O)Nc2ccc(F)c(Nc3ncnc4cnc(-n5cnc6ccccc65)nc34)c2F)C1` [Example 59], the IC50 (HCT116 pERK) was 0.5 to 1 µM, the “HCT116 (Ymin %)” value (HCT116 pERK) was 11% and the IC50 (SW480 pERK) was 0.5 to 1 µM. The “SW480 (Ymin %)” value (SW480 pERK) was 2%.
`CO[C@@H]1CCN(S(=O)(=O)Nc2ccc(F)c(Nc3ncnc4cnc(N5CC[C@H](F)C5)nc34)c2F)C1` [Example 60] was tested, and the IC50 (HCT116 pERK) was 1 to 10 µM, the “HCT116 (Ymin %)” value (HCT116 pERK) was 9% and the IC50 (SW480 pERK) was 1 to 10 µM. For the same molecule, the “SW480 (Ymin %)” value (SW480 pERK) was 15%.
In the case of `O=S(=O)(Nc1ccc(F)c(Nc2ncnc3cnc(N4CC[C@H](F)C4)nc23)c1F)c1ccc(Cl)cc1Cl` [Example 61], the IC50 (HCT116 pERK) is reported as 1 to 10 µM, the “HCT116 (Ymin %)” value (HCT116 pERK) is reported as 11% and the IC50 (SW480 pERK) is reported as 1 to 10 µM. The “SW480 (Ymin %)” value (SW480 pERK) was 9%.
For `O=S(=O)(Nc1ccc(F)c(Nc2ncnc3cnc(-n4cnc5ccccc54)nc23)c1F)c1ccc2c(c1)CCO2` [Example 64], the IC50 (HCT116 pERK) was 1 to 10 µM, the “HCT116 (Ymin %)” value (HCT116 pERK) was 2% and the IC50 (SW480 pERK) was 1 to 10 µM. The “SW480 (Ymin %)” value (SW480 pERK) was 19%.
